Assay results as given in patent US20100137226A1, “FATIGUE-REDUCING AGENT” (KYOWA HAKKO BIO CO., LTD, priority 2006, published 2010).
Where two headings read alike, the source gives them in different places.

Test system: SD male rats bred under water immersion
Conditions: swim with burden of ca. 8% of body weight, n=4, FIG. 1

SMILES | swimming time (time until the tip of nose was submerged in water for 10 seconds or more) (reduced glutathione 800 mg/kg body weight orally once a day for 5 days of water immersion breeding) | swimming time (time until the tip of nose was submerged in water for 10 seconds or more) (ornithine 1000 mg/kg body weight orally once a day for 5 days of water immersion breeding)
N[C@@H](CCC(=O)N[C@@H](CS)C(=O)NCC(=O)O)C(=O)O [glutathione, reduced glutathione] | no change was recognized | –
Cl.NCCC[C@H](N)C(=O)O [ornithine, L-ornithine hydrochloride] | – | recovery of the swimming time was recognized
